Experimental data published in patent publication US10081632B2, “Substituted tetrahydropyrido[3′,2′:4,5]pyrrolo[1,2-α]pyrazine-2-carboxamides as RSK inhibitors” (Phoenix Molecular Designs, priority 2016, dated 2018).
Structures can show the parent of a compound that is named as a salt.

What was measured:
[1] = tested on: 4T1 cells; assay: Soft agar growth inhibition assay; type: cell-based; settings: Mus musculus; 4T1 (TNBC), 14-22 days; read-out: IC50 Values - Soft Agar (14-22 Days)
Description: Two agar (Alfa Aesar) solutions (0.8% w/v and 0.4% w/v) were prepared in ultrapure water. The 0.8% agar solution was mixed in equal volumes with 2× media previously prepared from powder (Life Technologies) following the manufacturer's instructions and filter sterilized. The 0.8% agar and media solution was added to 24 well plates (Mandel Scientific) at 500 μl per well. The plates were placed in a humidified incubator at 37° C. with 5% CO2. Next, the 0.4% agar solution was mixed in equal volumes with 2× media. Breast cancer cell lines were added to this solution to achieve a final concentration of 2×10^4 cells per well and […] was added to each well on top of the bottom agar and media layer. […] The plates were returned to the incubator for 10-32 days, with a re-dosing of compounds or DMSO every 7 days. After 10-32 days, colonies were counted in 3 different fields of view for each well.
Representative compounds described herein were tested in the soft agar growth inhibition assay against the 4T1 breast cancer cell line.

[2] = tested on: All cell lines; assay: Monolayer growth inhibition, crystal violet assay, range over all cell lines; type: cell-based; settings: 120 h; range of IC50 over all cell lines of the table; read-out: IC50 Values - Crystal Violet (5 Days), Range, All
Excerpt: (§1) In all instances a single dose was given on day 1 of the experiment. […] Complete (100%) growth suppression was achievable with several of the compounds in multiple different cell lines.

[3] = Solubility assessment, 20 mg/ml solution; type: physicochemical; settings: for pH of 20 mg/ml solution: pH test strips
Description: Solubility is an important property for therapeutic drug candidates. Poor solubility can lead to low bioavailability resulting in suboptimal drug delivery. It can also prevent the evaluation of test agents in animals because the concentration(s) needed to achieve the desired effect cannot be achieved to poor solubility. For solubility assessments, small molecules targeting RSK were compared. For these assessments, 100 mM solutions of the compounds dissolved in DMSO were diluted in DMEM growth media (Life Technologies) supplemented with fetal bovine serum (FBS, Life Technologies) and 100 units/ml penicillin and 100 units/ml streptomycin (Life Technologies) to make 20 mg/ml solutions. Once diluted, the solutions were vortexed and examined for the formation of precipitates. […] For Compound 26, a 100 mM solution of the compound dissolved in DMSO was diluted in phosphate buffered saline (Life Technologies) to make a 20 mg/ml solution. The stock of […] was chosen because this is the upper end of what would be required to dose mice for a range of studies including MTD, PK, PD and efficacy. The pH of this solution was determined to be 2, as previously described. […] At high concentrations some RSK inhibitors were highly soluble while others were not. Compound 0 is (R)—N-(1-benzyl-1H-pyrazol-4-yl)-9-methyl-6-oxo-6,7,8,9-tetrahydropyrido[3′,2′:4,5]pyrrolo[1,2-a]pyrazine-2-carboxamide. Compound 0 was not soluble, whereas Compounds 18, 20, 21, 25 and 26 were soluble under the same conditions (Table 5).

[4] = tested on: MDA-MB-231 cells; assay: Soft agar growth inhibition assay; type: cell-based; settings: Homo sapiens; MDA-MB-231 (TNBC), 14-22 days; read-out: IC50 Values - Soft Agar (14-22 Days)
[5] = tested on: T47D cells; assay: Monolayer growth inhibition, Alamar blue assay; type: cell-based, Human; settings: Homo sapiens; T47D (ER/PR), 5 days, single dose on day 1
Excerpt: (§2) In all instances a single dose was given on day 1 of the experiment.

[6] = tested on: SUM149-PTXR cells; assay: Monolayer growth inhibition, Alamar blue assay; type: cell-based, Human; settings: Homo sapiens; SUM149-PTXR (TNBC, BRCA Mutant), 5 days, single dose on day 1
Excerpt: as §2

[7] = tested on: MDA-MB-468 cells; assay: Soft agar growth inhibition assay; type: cell-based, Human; settings: Homo sapiens; MDA-MB-468 (TNBC), 14-22 days
[8] = tested on: MDA-MB-468 cells; assay: Monolayer growth inhibition, Alamar blue assay; type: cell-based; settings: Homo sapiens; MDA-MB-468 (TNBC), 5 days, single dose on day 1
Excerpt: as §2

[9] = tested on: 4T1 cells; assay: Monolayer growth inhibition, Alamar blue assay; type: cell-based; settings: Mus musculus; 4T1 (TNBC), 5 days, single dose on day 1
Excerpt: as §2

[10] = tested on: MDA-MB-231 cells; assay: Monolayer growth inhibition, Alamar blue assay; type: cell-based; settings: Homo sapiens; MDA-MB-231 (TNBC), 5 days, single dose on day 1
Excerpt: as §2

[11] = tested on: MDA-MB-435 cells; assay: Monolayer growth inhibition, Alamar blue assay; type: cell-based; settings: Homo sapiens; MDA-MB-435 (Melanoma), 5 days, single dose on day 1
Excerpt: as §2

[12] = tested on: HCC1937 cells; assay: Monolayer growth inhibition, Alamar blue assay; type: cell-based; settings: Homo sapiens; HCC1937 (TNBC, BRCA Mutant), 5 days, single dose on day 1
Excerpt: as §2

[13] = tested on: HCC1143 cells; assay: Monolayer growth inhibition, Alamar blue assay; type: cell-based; settings: Homo sapiens; HCC1143 (TNBC), 5 days, single dose on day 1
Excerpt: as §2

[14] = tested on: PC3 cells; assay: Monolayer growth inhibition, Alamar blue assay; type: cell-based; settings: Homo sapiens, PC-3; PC3 (Prostate), 5 days, single dose on day 1
Excerpt: as §2

[15] = tested on: JIMT-1 cells; assay: Monolayer growth inhibition, Alamar blue assay; type: cell-based; settings: Homo sapiens; JIMT-1 (HER2), 5 days, single dose on day 1
Excerpt: as §2

[16] = tested on: SUM149 cells; assay: Monolayer growth inhibition, Alamar blue assay; type: cell-based; settings: Homo sapiens; SUM149 (TNBC, BRCA Mutant), 5 days, single dose on day 1
Excerpt: as §2

[17] = tested on: All cell lines; assay: Monolayer growth inhibition, Alamar blue assay, range over all cell lines; type: cell-based; settings: 120 h; range of IC50 over all cell lines of the table; read-out: IC50 Values - Alamar Blue (5 Days), Range, All
Excerpt: as §2

[18] = tested on: MDA-MB-468 cells; assay: Monolayer growth inhibition, crystal violet assay; type: cell-based; settings: Homo sapiens; MDA-MB-468 (TNBC), 5 days, single dose on day 1
Excerpt: as §1

[19] = tested on: HCC1937 cells; assay: Monolayer growth inhibition, crystal violet assay; type: cell-based; settings: Homo sapiens; HCC1937 (TNBC, BRCA Mutant), 5 days, single dose on day 1
Excerpt: as §1

[20] = tested on: T47D cells; assay: Monolayer growth inhibition, crystal violet assay; type: cell-based; settings: Homo sapiens; T47D (ER/PR), 5 days, single dose on day 1
Excerpt: as §1

[21] = tested on: JIMT-1 cells; assay: Monolayer growth inhibition, crystal violet assay; type: cell-based; settings: Homo sapiens; JIMT-1 (HER2), 5 days, single dose on day 1
Excerpt: as §1

[22] = tested on: 4T1 cells; assay: Monolayer growth inhibition, crystal violet assay; type: cell-based; settings: Mus musculus; 4T1 (TNBC), 5 days, single dose on day 1
Excerpt: as §2

[23] = tested on: MDA-MB-231 cells; assay: Monolayer growth inhibition, crystal violet assay; type: cell-based; settings: Homo sapiens; MDA-MB-231 (TNBC), 5 days, single dose on day 1
Excerpt: as §2

[24] = tested on: MDA-MB-435 cells; assay: Monolayer growth inhibition, crystal violet assay; type: cell-based; settings: Homo sapiens; MDA-MB-435 (Melanoma), 5 days, single dose on day 1
Excerpt: as §2

[25] = tested on: HCC1143 cells; assay: Monolayer growth inhibition, crystal violet assay; type: cell-based; settings: Homo sapiens; HCC1143 (TNBC), 5 days, single dose on day 1
Excerpt: as §2

[26] = tested on: PC3 cells; assay: Monolayer growth inhibition, crystal violet assay; type: cell-based; settings: Homo sapiens, PC-3; PC3 (Prostate), 5 days, single dose on day 1
Excerpt: as §2

[27] = tested on: SUM149 cells; assay: Monolayer growth inhibition, crystal violet assay; type: cell-based; settings: Homo sapiens; SUM149 (TNBC, BRCA Mutant), 5 days, single dose on day 1
Excerpt: as §2

[28] = tested on: SUM149-PTXR cells; assay: Monolayer growth inhibition, crystal violet assay; type: cell-based; settings: Homo sapiens; SUM149-PTXR (TNBC, BRCA Mutant), 5 days, single dose on day 1
Excerpt: as §2

[29] = tested on: phosphorylated Y-box binding protein-1 (YB-1) at serine 102 (P-YB-1S102); assay: Immunoblotting of cell signalling, loss of P-YB-1 in MDA-MB-231 cells; settings: Homo sapiens, MDA-MB-231, read-out: IC50 values for P-YB-1

| Compound | IC50 [1] [µM] | IC50 [2] [µM] | IC50 [4] [µM] | IC50 [6] [µM] | IC50 [7] [µM] | IC50 [8] [µM] | IC50 [9] [µM] | IC50 [10] [µM] | IC50 [11] [µM] | IC50 [12] [µM] | IC50 [13] [µM] | IC50 [14] [µM] | IC50 [15] [µM] | IC50 [16] [µM] | IC50 [17] [µM] | IC50 [18] [µM] | IC50 [19] [µM] | IC50 [21] [µM] | IC50 [22] [µM] | IC50 [23] [µM] | other results |
| --- | --- | --- | --- | --- | --- | --- | --- | --- | --- | --- | --- | --- | --- | --- | --- | --- | --- | --- | --- | --- | --- |
| C[C@@H]1CNC(=O)c2cc3ccc(C(=O)Nc4ccccc4C(N)=O)nc3n21 [Compound 21, (R)—N-(2-carbamoylphenyl)-9-methyl-6-oxo-6,7,8,9-tetrahydropyrido[3′,2′:4,5]pyrrolo[1,2-a]pyrazine-2-carboxamide] | 3.1 ± 0.6 | 1.1 to 11.3 | 2 ± 1 | 1.5 ± 0.8 | 0.4 ± 0.1 | 6.5 ± 4.5 | 1.2 ± 0.3 | 14.7 ± 4.3 | 8.3 ± 5.3 | 8.3 ± 2.4 | 5.4 ± 3.7 | 7.1 ± 0.9 | 12.6 ± 6.4 | 2.7 ± 1.3 | 1.2 to 14.7 | 4.6 ± 1.4 | 11 ± 1 | 11.3 ± 4.1 | 1.1 ± 0.7 | 9.1 ± 0.8 | Solubility, 20 mg/ml Solution ([3]; 100 mM in DMSO diluted in DMEM growth media to 20 mg/ml): Soluble; pH of 20 mg/ml solution ([3]; DMSO stock diluted in DMEM): 9; IC50 [5]: 8 ± 3.8 µM; IC50 [20]: 3.7 ± 2.7 µM; IC50 [24]: 4.8 ± 2.1 µM; IC50 [25]: 9.5 ± 5.6 µM; IC50 [26]: 4.3 ± 0.5 µM; IC50 [27]: 2.4 ± 1.3 µM; IC50 [28]: 2 ± 0.2 µM |
| C[C@@H]1CNC(=O)c2cc3ccc(C(=O)Nc4cnn(Cc5ccc(CN)cc5)c4)nc3n21 [Compound 26, (R)—N-(1-(4-(aminomethyl)benzyl)-1H-pyrazol-4-yl)-9-methyl-6-oxo-6,7,8,9-tetrahydropyrido[3′,2′:4,5]pyrrolo[1,2-a]pyrazine-2-carboxamide hydrochloride salt] | 5.3 ± 1.3 | 1.5 to 12.3 | 0.2 ± 0.1 | 8.8 ± 2.5 | 2 ± 0.2 | 2.5 ± 0.7 | 6.2 ± 2.5 | 7.4 ± 1.7 | 3.9 ± 1.3 | 5.6 ± 0.4 | 9.6 ± 6.1 | 1.9 ± 0.8 | 15.5 ± 6.6 | 9.8 ± 5.7 | 1.9 to 15.5 | 1.7 ± 0.2 | 6.6 ± 1.6 | 12.3 ± 3.2 | 4.9 ± 1.1 | 3.7 ± 1.8 | Solubility after addition of 4M NaOH ([3]; 20 mg/ml in PBS, pH equal to 9): remained in solution; Solubility, 20 mg/ml Solution ([3]; 100 mM in DMSO diluted in PBS to 20 mg/ml, hydrochloride salt): Soluble; pH of 20 mg/ml solution ([3]; DMSO stock diluted in PBS, hydrochloride salt): 2-9; IC50 [29]: 0.047 µM; IC50 [24]: 1.6 ± 0.3 µM; IC50 [25]: 7.3 ± 2.7 µM; IC50 [26]: 1.5 ± 0.5 µM; IC50 [27]: 6.5 ± 4.4 µM; IC50 [28]: 6.5 ± 2.1 µM |
